Reference: PubChem BioAssay (NCI)
“And” between values parts separate entries of the source, which are not always exact repeats. Identical values can stand only once.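 Protocol summary: plate cells (96-well), add compound at 5 concentrations, incubate 48 h, interpolate endpoints linearly. Here, GI50 denotes the concentration required for 50% inhibition of growth. TGI marks complete inhibition of growth.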

Tests used:
Assay in all cases: growth of human tumour cells (NCI), 48 h
[1] = test system: SK-MEL-2 melanoma
[2] = test system: OVCAR-5 ovarian
[3] = test system: MOLT-4 leukemia
[4] = test system: NCI-H522 lung
[5] = test system: OVCAR-4 ovarian
[6] = test system: CCRF-CEM leukemia
[7] = test system: 786-0 renal
[8] = test system: T-47D breast
[9] = test system: SN12C renal
[10] = test system: UO-31 renal

| Compound | GI50 [1] | TGI [1] | GI50 [2] | TGI [2] | GI50 [3] | TGI [3] | GI50 [4] | TGI [4] | GI50 [5] | TGI [5] | GI50 [6] | TGI [6] | GI50 [7] | TGI [7] | GI50 [8] | TGI [8] | GI50 [9] | TGI [9] | GI50 [10] | TGI [10] |
| --- | --- | --- | --- | --- | --- | --- | --- | --- | --- | --- | --- | --- | --- | --- | --- | --- | --- | --- | --- | --- |
| CCN(CC)CCCC(C)NC(=S)N/N=C(\C)c1ccccn1 (stereo not given) | 5.54 µM | > 100 µM | 4.89 µM | > 100 µM | 4.49 µM | > 100 µM | 3.17 µM | 9.41 µM | 3 µM | > 100 µM | 4.64 µM | > 100 µM | 2.83 µM | 12 µM | 5.36 µM | > 100 µM | 4.14 µM | > 100 µM | 2.51 µM | > 100 µM |
| CC(CCC/C=C/CCCN(C)C(=N)N)CC(C)C1OC(=O)C(C)C(O)/C=C/C(C)C(O)C(C)C(O)C(C)C(O)CCCC(O)CC2(O)OC(CC(OC(=O)CC(=O)O)CC(O)CC(O)C(C)C(O)/C=C/C=C/C1C)CC(O)C2O (stereo not given) | 7.22 µM and 10.2 µg/mL | 23 µM and 20.5 µg/mL | 14.4 µM and 13.5 µg/mL | 29.9 µM and 26.1 µg/mL | 2.78 µM and 11.1 µg/mL | 5.88 µM and 28.4 µg/mL | 2.38 µM and 2.79 µg/mL | 10.5 µM and 12.9 µg/mL | 2.65 µM and 7.59 µg/mL | 6.66 µM and 18.4 µg/mL | 2.7 µM | 11 µM | 2.8 µM and 5.3 µg/mL | 7.6 µM and 17.5 µg/mL | 1.81 µM and 2.63 µg/mL | 4.44 µM and 11.9 µg/mL | 2.22 µM and 2.78 µg/mL | 4.97 µM and 12 µg/mL | 3.36 µM and 14.5 µg/mL | 8.6 µM and 26.1 µg/mL |
| Cc1nc2cc(NC(=O)CN3CCN(CCN4C(=O)c5cccc6cccc(c56)C4=O)CC3)ccc2s1 | 6.62 µM | 24.1 µM | 14.1 µM | > 100 µM | 2.52 µM | 22.2 µM | 3.01 µM | 13.8 µM | 5.33 µM | > 100 µM | 2.94 µM | 95.9 µM | 5.91 µM | 19.1 µM | 3.07 µM | 17.9 µM | 5.22 µM | > 100 µM | 3.07 µM | > 100 µM |
| Cc1cc(N2CCOCC2)nc(N(CCNc2ccnc3cc(Cl)ccc23)Cc2cccs2)n1 | 1.99 µM | 4.08 µM | 2.19 µM | 4.73 µM | 2.58 µM | 5.93 µM | 1.72 µM | 3.72 µM | 2.37 µM | 7.59 µM | 2.02 µM | 6.1 µM | 1.69 µM | 3.12 µM | 1.84 µM | 4.4 µM | 1.9 µM | 4.01 µM | 1.39 µM | 2.75 µM |
| Nc1cc2[nH]c(=O)c3cc(Cl)ccc3c2cc1Cl |  | > 100 µM |  | > 100 µM |  | > 100 µM |  | 33 µM |  | > 100 µM |  | > 100 µM |  | > 100 µM |  | > 100 µM |  | > 100 µM |  | 30.5 µM |
| O=C(NC(c1ccccc1)C(O)C(=O)OCc1ccc2c(c1)C(=O)c1ccccc1C2=O)c1ccccc1 (stereo not given) |  | 86.9 µM |  | 79.9 µM |  | > 100 µM |  | 63.6 µM |  | 4.99 µM |  | > 100 µM |  | 6.4 µM |  | 34.9 µM |  | 47.9 µM |  | 10.1 µM |
| CCN(CC)CCC(CNc1c2ccc(Cl)cc2nc2ccc(OC)cc12)c1ccccc1 (stereo not given) | 1.76 µM | 3.31 µM | 1.94 µM | 5.64 µM | 0.486 µM | 5 µM | 0.555 µM | 2.1 µM | 1.64 µM | 4.26 µM | 1.1 µM | 5.17 µM | 1.38 µM | 3.11 µM | 2.25 µM | 4.96 µM | 1.15 µM | 4.98 µM | 1.3 µM | 3.27 µM |
| CCCCCCn1c(=N)n(CC(O)COc2cccc(C)c2)c2ccccc21 (stereo not given) | 1.91 µM | 4.26 µM | 4.01 µM | 15.1 µM | 2.39 µM | 6.16 µM | 1.78 µM | 3.82 µM | 2.15 µM | 6.27 µM | 2.36 µM | 7.14 µM | 1.72 µM | 3.24 µM | 2.19 µM | 4.86 µM | 3.21 µM | 13.8 µM | 3.88 µM | 15.4 µM |
| N#Cc1ccccc1C#C/C=C\C#Cc1cnccn1 | 8.34 µM | > 100 µM | 6.09 µM | > 49.9 µM | > 24.3 µM | > 100 µM | 18 µM | > 65.9 µM | 36 µM | > 100 µM | 3.09 µM | > 100 µM | 21 µM | > 79.3 µM | > 66.3 µM | > 100 µM | 13.8 µM | 41.5 µM | 44 µM | > 100 µM |
| COc1ccc(/C=C2\CC(C)CC3C2=NN(C(C)=O)C3c2ccc(OC)c(OC)c2)cc1OC (stereo not given) | 15.4 µM | 30 µM | 17.5 µM | 33.8 µM | 12.6 µM | 43.6 µM | 14.5 µM | 40.4 µM | 19.7 µM | 84.3 µM | 20.8 µM | 68.8 µM | 12.9 µM | 27.4 µM | 2.68 µM | 9.42 µM | 22.7 µM | 62.3 µM | 13.3 µM | 29.6 µM |
| C[CH2][Ge]1([CH2]C)[CH2]CC2(CCN(CCCN(C)C)C2)C[CH2]1 | 0.616 µM | 1.32 µM | 1.84 µM and 2.45 µM | 3.8 µM and 5.19 µM |  | 2.91 µM and 25.7 µM | 1.3 µM and 11.2 µM | 2.88 µM and 24.4 µM | 0.694 µM and 4.41 µM | 6.79 µM and 11.6 µM | 0.709 µM and 1.4 µM | 2.33 µM and 2.44 µM | 1.43 µM | 2.87 µM | 1.65 µM | 3.25 µM | 1.38 µM | 4.62 µM | 1.22 µM and 1.91 µM | 2.48 µM and 3.68 µM |
| Cc1cccc(NC(=O)c2sc3nc4c(cc3c2N)CCC4)c1C | 0.31 µM | 17.9 µM | 0.531 µM | 62.6 µM | 0.576 µM | > 100 µM | 0.325 µM | 16.5 µM | 1.33 µM | 22.8 µM | 0.321 µM | 35.8 µM | 0.367 µM | 14.3 µM | 0.351 µM | 34.7 µM | 0.888 µM | > 100 µM | 0.615 µM | > 100 µM |
| C/C=C\C(C)=C/C(C)C(=O)CC(O)CC1CC(=O)NC(=O)C1 (stereo not given) |  | > 100 µM |  | > 100 µM |  | > 28.2 µM |  | 13.6 µM |  | > 100 µM |  | > 100 µM |  | > 100 µM |  | > 100 µM |  | > 100 µM |  | > 100 µM |
| CC(=O)OC1C(OC/C2=C/C3[C@@H](C(C)C)CC=C(C)[C@@H]3CC(OC(=O)/C=C/c3cn(C)cn3)[C@]3(C)C=C[C@@]2(O)O3)OCC(O)C1O (stereo not given in full) | 0.0199 µM |  | 0.0207 µM |  | 0.0415 µM | > 50 µM | 0.015 µM |  | 0.0586 µM | > 50 µM | 0.0399 µM | > 50 µM | 0.0441 µM | > 50 µM | 0.0219 µM | > 50 µM | 0.186 µM | > 50 µM | 1.13 µM | > 50 µM |
| Cn1c(N)c(N=Nc2ccc(S(N)(=O)=O)cc2)c(=O)n(C)c1=O |  | > 100 µM |  | > 100 µM |  | > 100 µM |  | > 100 µM |  | > 100 µM |  | > 100 µM |  | > 100 µM |  | > 100 µM |  | > 100 µM |  | > 100 µM |
| C=C1C(=O)O[C@H]2[C@H]1CC/C(Cn1cc(CNC(=O)c3cc4ccccc4[nH]3)nn1)=C\CC[C@@]1(C)O[C@@H]21 | 6.43 µM | 23 µM | 2.51 µM | 9.07 µM | 2.71 µM | 7.15 µM | 0.921 µM | 2.84 µM | 4.52 µM | 17.1 µM | 0.527 µM | 5.21 µM | 2.96 µM | 9.61 µM | 3.55 µM | 20.4 µM | 1.97 µM | 4.66 µM | 10.4 µM | 22.1 µM |
| COc1cc(C2C3=C(COC3=O)N(CCO)c3cc4c(cc32)CCC4)cc(OC)c1OC (stereo not given) | 0.146 µM | > 9.09 µM | 0.164 µM | > 32.5 µM | 0.147 µM | > 32.5 µM | 0.041 µM | 0.212 µM | 0.14 µM | > 20.9 µM | 0.13 µM | > 32.5 µM | 0.119 µM |  | > 32.5 µM | > 32.5 µM | 0.142 µM | > 32.5 µM | 0.228 µM | > 17 µM |
| COc1cc2c(cc1Nc1nc(Nc3ccsc3C(N)=O)c3cc[nH]c3n1)N(C(=O)CN(C)C)CCC2 | 0.726 µM | 4.58 µM | 0.109 µM | 3.66 µM | 1.23 µM | 9.6 µM | 0.507 µM | 2.19 µM | 2.98 µM | 9.03 µM | 0.162 µM | 9.66 µM | 3.13 µM | 6.95 µM | 3.87 µM | 9.65 µM | 3.67 µM | 11.8 µM | 3.35 µM | 7.39 µM |
